This test deals with Western flower thrips. As to the kind of experiment: Insecticidal effect against thrips on caged potted tomato crop. To be noted: tomato pot in cage, granules 2 g per pot, clothianidin 0.02 g per pot. The test is classed as in vivo. Here is the method:
An experiment on the insecticidal effect against thrips was carried out in a tomato crop. A population of the tomato crop having a height of 20 to 25 cm was used, and the tomato crop was put into a plastic cage (30×30×60 cm^3) equipped with a sieve with mesh smaller than that of Western flower thrips to prevent Western flower thrips from moving from a treatment zone, and an experiment was then performed.
A pot in which a tomato crop was planted, was treated with 2 g of the microbial insecticide granules of the present invention prepared in Example 1. Also, as the comparison group, the tomato crop was treated with an agricultural chemical (i.e., clothianidin) known to show a potent insecticidal effect against thrips at an amount of 0.02 g (i.e., an amount of 3 kg/10 a) per pot, and no insecticide was applied to the pot of the control group.

With `CN/C(=N\[N+](=O)[O-])NCc1cnc(Cl)s1` [clothianidin], for the setting “after 20 days”, the “Thrips density After 20 days” value is listed as 3.7 ± 0.5 number/plant. In addition, the “Thrips density After 40 days” value (after 40 days) amounted to 2.4 ± 0.4 number/plant.

(Values after US20200100505A1, “MICROBIAL INSECTICIDE FOR CONTROL OF MULBERRY THRIPS” (FARMHANNONG CO., LTD., priority 2017, published 2020).)
